# Reference: patent US20240180889A1, “COMBINATION THERAPY FOR COVID-19 VACCINATION” (priority 2021, published 2024)
# Legend:
# MDA-MB-231 cells = format: cell-based, human
# [1] = tested on: Tartrate Resistant Acid Phosphatase (TRAP) activity in RAW-OC cells; format: cell-based, mouse
# MCF-7 cells = format: cell-based
smiles,measurement,setting,value
C[C@]12CC[C@@H]3c4ccc(O)cc4CC[C@H]3[C@@H]1CC[C@@H]2O [17β-estradiol],cell proliferation (BrdU),MDA-MB-231 cells,do not significantly affect cell proliferation
same,activity of TRAP,[1],superimposable decrease
"O=C(c1ccc(OCCN2CCCCC2)cc1)c1c(-c2ccc(O)cc2)sc2cc(O)ccc12 [Raloxifene, raloxifene]",effect on proliferation promoting activity of 17β-estradiol and spike,MCF-7 cells,blocked
same,effect on the estradiol- or spike-induced decrease in TRAP activity,[1],blocked
